Consider 22 molecules from patent US20240150362A1, “Substituted Pyrrolotriazines” (Molecure S.A., priority 2022, published 2024).

What is called pIC50 is −log10 of the IC50, conventionally taken in molar units. Read a low pIC50 as a large IC50. The term inhibition denotes the change of the read-out against control, counted positive when it falls. Read a low inhibition as little suppression.

pIC50: −log10 of the molar value. Counter-ions that a name gives are not always drawn.

The target in the first assay is T1, full-length USP7 (Homo sapiens, UniProt Q93009).
T1 construct: A 45 μl reaction volume containing full-length USP7 (0.5-1.0 nM)
T1 sequence (Q93009 whole entry): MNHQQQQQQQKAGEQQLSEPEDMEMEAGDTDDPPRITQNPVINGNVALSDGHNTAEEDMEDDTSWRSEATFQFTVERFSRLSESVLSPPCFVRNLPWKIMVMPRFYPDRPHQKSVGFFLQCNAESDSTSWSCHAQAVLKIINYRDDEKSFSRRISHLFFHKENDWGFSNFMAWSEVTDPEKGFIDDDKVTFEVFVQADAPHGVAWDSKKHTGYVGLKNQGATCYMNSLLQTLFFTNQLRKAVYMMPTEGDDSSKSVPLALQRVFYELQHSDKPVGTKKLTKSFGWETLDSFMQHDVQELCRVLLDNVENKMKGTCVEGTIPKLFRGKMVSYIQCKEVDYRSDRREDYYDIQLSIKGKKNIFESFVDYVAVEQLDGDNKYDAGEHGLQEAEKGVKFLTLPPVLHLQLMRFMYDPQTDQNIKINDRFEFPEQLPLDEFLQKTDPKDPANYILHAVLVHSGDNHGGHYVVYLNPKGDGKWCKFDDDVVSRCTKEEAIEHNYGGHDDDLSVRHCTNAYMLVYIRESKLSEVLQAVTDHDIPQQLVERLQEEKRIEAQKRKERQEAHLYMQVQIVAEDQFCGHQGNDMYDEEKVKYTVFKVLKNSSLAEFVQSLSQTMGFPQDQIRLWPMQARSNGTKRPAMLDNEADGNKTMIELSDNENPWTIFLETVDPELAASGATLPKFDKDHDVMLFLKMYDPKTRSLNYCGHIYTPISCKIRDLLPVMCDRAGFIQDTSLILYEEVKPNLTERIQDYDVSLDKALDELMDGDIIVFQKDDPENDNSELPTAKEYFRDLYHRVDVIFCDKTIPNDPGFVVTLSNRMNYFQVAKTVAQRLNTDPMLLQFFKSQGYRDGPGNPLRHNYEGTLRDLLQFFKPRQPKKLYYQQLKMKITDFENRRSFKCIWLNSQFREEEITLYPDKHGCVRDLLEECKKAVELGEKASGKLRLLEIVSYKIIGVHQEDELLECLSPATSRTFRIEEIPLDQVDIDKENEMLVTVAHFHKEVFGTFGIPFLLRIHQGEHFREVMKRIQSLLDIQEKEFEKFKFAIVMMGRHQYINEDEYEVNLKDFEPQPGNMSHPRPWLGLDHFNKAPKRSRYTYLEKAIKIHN
Kind of assay: Enzymatic assay to determine IC50 of USP7 inhibitors (Ubiquitin-Rhodamine 110 cleavage). Type of assay: biochemical. As to conditions: full-length USP7 0.5-1.0 nM, 0.5 μM Ubiquitin-Rhodamine 110, 30-60 min at 25° C. How it is done: Enzymatic Assay to Determine IC50 of USP7 Inhibitors
The IC50 is the concentration of an inhibitor where the measured enzyme activity is reduced by half. In the case of USP7 deubiquitinase, the IC50 of an USP7 inhibitor is the molar concentration of the compound that inhibits 50% of the activity observed in a USP7-mediated-ubiquitin-rhodamine cleavage assay. For the inhibitors disclosed herein, their potency was measured using the following method.
A 45 μl reaction volume containing full-length USP7 (0.5-1.0 nM) in 50 mM HEPES pH 7.5, 150 mM NaCl, 2 mM DTT, 1 mg/ml BSA and 0.05% Tween20 was assembled in wells of 96 well half area black flat bottom plates. Test compounds were first dissolved to 30 mM stocks in DMSO and subsequently introduced to enzyme 15 min after USP7 incubation with DTT at room temperature. The enzymatic reaction was started by adding 0.5 μM Ubiquitin-Rhodamine 110 (final concentration) and allowed to proceed for 30-60 min at 25° C., 250 RPM shaking before Rhodamine fluorescence (485 nm excitation/535 nm emission) was measured using Tecan Spark M10 plate reader. The IC50 values were determined by data fitting to variable slope model four-parameter dose-response curve using GraphPad 7.05.
With `Cc1cc(Cl)cc(-c2ncnn3cc(CN4C(=O)C5C(C4=O)C5(C)C)cc23)c1CC1CNCC2(CC2)O1` (racemic) [Example 46, 3-((4-(2-((4-oxa-7-azaspiro[2.5]octan-5-yl)methyl)-5-chloro-3-methylphenyl)pyrrolo[2,1-f][1,2,4]triazin-6-yl)methyl)-6,6-dimethyl-3-azabicyclo[3.1.0]hexane-2,4-dione hydrochloride], the pIC50 was greater than 6.30. Still for that read-out and setting: for `Cc1cc(Cl)cc(-c2ncnn3cc(CN4C(=O)C5C(C4=O)C5(C)C)cc23)c1CC1CNCC(C)(C)O1` (racemic) [Example 50, 3-((4-(5-chloro-2-((6,6-dimethylmorpholin-2-yl)methyl)-3-methylphenyl)pyrrolo[2,1-f][1,2,4]triazin-6-yl)methyl)-6,6-dimethyl-3-azabicyclo[3.1.0]hexane-2,4-dione hydrochloride] the value was greater than 6.30. On to `CC1(C)C2C(=O)N(Cc3cc4c(-c5cc(Cl)cc6c5N(C5CCNC5)CCC6)ncnn4c3)C(=O)C21` (racemic) [Example 51, 3-((4-(6-chloro-1-(pyrrolidin-3-yl)-1,2,3,4-tetrahydroquinolin-8-yl)pyrrolo[2,1-f][1,2,4]triazin-6-yl)methyl)-6,6-dimethyl-3-azabicyclo[3.1.0]hexane-2,4-dione hydrochloride], for which the negative-log IC50 (pIC50) was greater than 6.30. In turn, `Cc1cc(Cl)cc(-c2ncnn3cc(Cn4c(=O)ccn(C)c4=O)cc23)c1CC1CNCCO1` (racemic) [Example 60, 3-((4-(5-chloro-3-methyl-2-(morpholin-2-ylmethyl)phenyl)pyrrolo[2,1-f][1,2,4]triazin-6-yl)methyl)-1-methylpyrimidine-2,4(1H,3H)-dione hydrochloride] had a pIC50 greater than 6.30. Consider `Cc1cc(Cl)cc(-c2ncnn3cc(Cn4c(=O)ccn(CC(F)(F)F)c4=O)cc23)c1CC1CNCCO1` (racemic) [Example 68, 3-((4-(5-chloro-3-methyl-2-(morpholin-2-ylmethyl)phenyl)pyrrolo[2,1-f][1,2,4]triazin-6-yl)methyl)-1-(2,2,2-trifluoroethyl)pyrimidine-2,4(1H,3H)-dione hydrochloride], for which the negative logarithm of the IC50 (pIC50) was greater than 6.30. `CC1(C)C2C(=O)N(Cc3cc4c(-c5cc(Cl)cc6ccn(C[C@@H]7CNCCO7)c56)ncnn4c3)C(=O)C21` (single isomer, unassigned) [Example 30, dihydrochloride] showed a pIC50 greater than 6.30.

In the case of `Cc1cc(Cl)cc(-c2ncnn3cc(CN4C(=O)C5C(C4=O)C5(C)C)cc23)c1CC1CN[C@H](C)CO1` (single isomer, unassigned) [Example 41, hydrochloride], the negative-log IC50 (pIC50) is greater than 6.30.

For the next assay, the target named is T1, full-length USP7. Kind of assay: Enzymatic assay to determine % inhibition of USP7 activity at 1 μM test compound (Ubiquitin-Rhodamine 110 cleavage). Type of assay: biochemical. As to conditions: 1 μM of the test compound; given where IC50 has not been determined yet; mean of two repetitions. The procedure, abridged:
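Full-length USP7 (0.5-1.0 nM) was preincubated 15 min with DTT in HEPES pH 7.5 buffer, and compound was added at a final 1 μM. Ubiquitin-Rhodamine 110 (0.5 μM final) was then cleaved for 30-60 min at 25° C., read at 485/535 nm. % inhibition is the mean of two repetitions.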
The molecule `CC1(C)C2C(=O)N(Cc3cc4c(-c5cc(Cl)ccc5N5CC[C@@H](N)C5)ncnn4c3)C(=O)C21` (stereo partly drawn) [Example 87, 3-((4-(2-((R)-3-aminopyrrolidin-1-yl)-5-chlorophenyl)pyrrolo[2,1-f][1,2,4]triazin-6-yl)methyl)-6,6-dimethyl-3-azabicyclo[3.1.0]hexane-2,4-dione hydrochloride] registered an inhibition at 1 µM of 20 to 49%. `Cc1cc(Cl)cc(-c2ncnn3cc(Cn4c(=O)ccn(C)c4=O)cc23)c1C1=CCNCC1` [Example 88, 3-((4-(5-chloro-3-methyl-2-(1,2,3,6-tetrahydropyridin-4-yl)phenyl)pyrrolo[2,1-f][1,2,4]triazin-6-yl)methyl)-1-methylpyrimidine-2,4(1H,3H)-dione hydrochloride]: the inhibition at 1 µM was less than 20%.

Turning to `CC1(C)C2C(=O)N(Cc3cc4c(-c5cc(Cl)ccc5N5C[C@H]6CCN[C@H]6C5)ncnn4c3)C(=O)C21` (stereo partly drawn) [Example 90, 3-((4-(5-chloro-2-((3aR,6aR)-hexahydropyrrolo[3,4-b]pyrrol-5(1H)-yl)phenyl)pyrrolo[2,1-f][1,2,4]triazin-6-yl)methyl)-6,6-dimethyl-3-azabicyclo[3.1.0]hexane-2,4-dione hydrochloride], the inhibition at 1 µM lay within 50 to 70%.

In the case of `CC1(C)C2C(=O)N(Cc3cc4c(-c5cc(Cl)ccc5N5CCC6(CCCN6)C5)ncnn4c3)C(=O)C21` (stereo not shown) [Example 91, 3-((4-(5-chloro-2-(1,7-diazaspiro[4.4]nonan-7-yl)phenyl)pyrrolo[2,1-f][1,2,4]triazin-6-yl)methyl)-6,6-dimethyl-3-azabicyclo[3.1.0]hexane-2,4-dione hydrochloride], the inhibition at 1 µM lay in the range of 20 to 49%.

As for `CC1(C)C2C(=O)N(Cc3cc4c(-c5cc(Cl)cc6c5N(C5CCNC5)CC5CC65)ncnn4c3)C(=O)C21` (stereo not shown) [Example 92, 3-((4-(6-chloro-3-(pyrrolidin-3-yl)-1a,2,3,7b-tetrahydro-1H-cyclopropa[c]quinolin-4-yl)pyrrolo[2,1-f][1,2,4]triazin-6-yl)methyl)-6,6-dimethyl-3-azabicyclo[3.1.0]hexane-2,4-dione hydrochloride], the inhibition at 1 µM lay within 50 to 70%. Still for that read-out and setting: the value for `CC1(C)C2C(=O)N(Cc3cc4c(-c5cc(Cl)ccc5N5C[C@@H]6CCN[C@@H]6C5)ncnn4c3)C(=O)C21` (stereo partly drawn) [Example 96, 3-((4-(5-chloro-2-((3aS,6aS)-hexahydropyrrolo[3,4-b]pyrrol-5(1H)-yl)phenyl)pyrrolo[2,1-f][1,2,4]triazin-6-yl)methyl)-6,6-dimethyl-3-azabicyclo[3.1.0]hexane-2,4-dione hydrochloride] was less than 20%.

`CC1(C)C2C(=O)N(Cc3cc4c(-c5cc(Cl)ccc5N5CC6CNCC6C5)ncnn4c3)C(=O)C21` (stereo not shown) [Example 97, 3-((4-(5-chloro-2-(hexahydropyrrolo[3,4-c]pyrrol-2(1H)-yl)phenyl)pyrrolo[2,1-f][1,2,4]triazin-6-yl)methyl)-6,6-dimethyl-3-azabicyclo[3.1.0]hexane-2,4-dione hydrochloride] yielded an inhibition at 1 µM of less than 20%. Same read-out and setting: for `Cc1cc(Cl)cc(-c2ncnn3cc(CN4C(=O)C5C(C4=O)C5(C)C)cc23)c1CN1CCC2(CC1)CNC2` (stereo not shown) [Example 102, 3-((4-(2-((2,7-diazaspiro[3.5]nonan-7-yl)methyl)-5-chloro-3-methylphenyl)pyrrolo[2,1-f][1,2,4]triazin-6-yl)methyl)-6,6-dimethyl-3-azabicyclo[3.1.0]hexane-2,4-dione hydrochloride] the value was 20 to 49%; for `CN[C@H]1CCCN(c2ccc(Cl)cc2-c2ncnn3cc(CN4C(=O)C5C(C4=O)C5(C)C)cc23)C1` (stereo partly drawn) [Example 112, 3-((4-(5-chloro-2-((S)-3-(methylamino)piperidin-1-yl)phenyl)pyrrolo[2,1-f][1,2,4]triazin-6-yl)methyl)-6,6-dimethyl-3-azabicyclo[3.1.0]hexane-2,4-dione hydrochloride], 50 to 70%; for `Cn1ccc(=O)n(Cc2cc3c(-c4cc(Cl)cc(F)c4CC4CNCCO4)ncnn3c2)c1=O` (stereo not shown) [Example 116, 3-((4-(5-chloro-3-fluoro-2-(morpholin-2-ylmethyl)phenyl)pyrrolo[2,1-f][1,2,4]triazin-6-yl)methyl)-1-methylpyrimidine-2,4(1H,3H)-dione hydrochloride], 50 to 70%. Same read-out and setting: for `Cc1cc(Cl)cc(-c2ncnn3cc(Cn4c(=O)ccn(C)c4=O)cc23)c1CC1CNC[C@H](C)O1` (stereo partly drawn) [Example 122, 3-((4-(5-chloro-3-methyl-2-(((6S)-6-methylmorpholin-2-yl)methyl)phenyl)pyrrolo[2,1-f][1,2,4]triazin-6-yl)methyl)-1-methylpyrimidine-2,4(1H,3H)-dione dihydrochloride] the value was 20 to 49%; for `O=c1cc[nH]c(=O)n1Cc1cc2c(-c3cc(Cl)cc4ccn(CC5(F)CCNCC5)c34)nc(Cl)nn2c1` [Example 123, 3-((2-chloro-4-(5-chloro-1-((4-fluoropiperidin-4-yl)methyl)-1H-indol-7-yl)pyrrolo[2,1-f][1,2,4]triazin-6-yl)methyl)pyrimidine-2,4(1H,3H)-dione hydrochloride], less than 20%. For `CC(C)n1ccc(=O)n(Cc2cc3c(-c4cc(Cl)cc5ccn(CC6(F)CCNCC6)c45)ncnn3c2)c1=O` [Example 127, 3-((4-(5-chloro-1-((4-fluoropiperidin-4-yl)methyl)-1H-indol-7-yl)pyrrolo[2,1-f][1,2,4]triazin-6-yl)methyl)-1-isopropylpyrimidine-2,4(1H,3H)-dione hydrochloride], the inhibition at 1 µM was greater than 70%. The same measure, in the same setting: for `Cc1cc(F)cc(-c2ncnn3cc(Cn4c(=O)ccn(C)c4=O)cc23)c1CC1CNC[C@H](C)O1` (stereo partly drawn) [Example 128, 3-((4-(5-fluoro-3-methyl-2-(((6S)-6-methylmorpholin-2-yl)methyl)phenyl)pyrrolo[2,1-f][1,2,4]triazin-6-yl)methyl)-1-methylpyrimidine-2,4(1H,3H)-dione hydrochloride] the value was 20 to 49%. Take `Cc1nc(C(F)(F)F)cc(-c2ncnn3cc(Cn4c(=O)ccn(C)c4=O)cc23)c1OC1CCCNC1` (stereo not shown) [Example 129, 1-methyl-3-((4-(2-methyl-3-(piperidin-3-yloxy)-6-(trifluoromethyl)pyridin-4-yl)pyrrolo[2,1-f][1,2,4]triazin-6-yl)methyl)pyrimidine-2,4(1H,3H)-dione hydrochloride]: the inhibition at 1 µM was less than 20%.
